Measurements from publication PMC7170889, “Synthesis and evaluation of designed PKC modulators for enhanced cancer immunotherapy” (Nature Communications, 2020).
Read-outs that look alike come from different tables or passages of the source.

Assays:
PKCα = target: T1, PKCα (Homo sapiens, UniProt P17252); assay: PKC competitive binding assay with [3H]-phorbol dibutyrate (PKCα)
T1 construct: purchased Invitrogen
Description: (§1) With a panel of compounds bearing diverse functionality at C13, we began to explore how these modifications affect PKC binding and biological function. Because an obvious prerequisite for PKC pathway involvement is binding to PKC, compounds were initially evaluated for PKC affinity in a cell-free competitive binding assay with tritiated phorbol dibutyrate ([^3H]-PDBu). Assays were performed with representative members of both the conventional (PKCα) and novel (PKCδ) PKC families. Subsequently, compounds were assayed for PKC isoform translocation in real time in living cells using an optical assay. Translocation to the plasma membrane is the hallmark of PKC activation[18],[57],[60] and therefore monitoring the subcellular localization of a PKCδ-GFP fusion protein via confocal microscopy offers a convenient method for determining whether a compound enters a cell and engages its PKC isoform target. Finally and of clinical significance, we also determined the effect of compounds on CD22 surface expression in vitro in NALM6 cells, an ALL cell line previously studied in connection with CD22-targeted CAR T cell therapy, and two additional lymphoma cell lines[11],[31],[65].
(§2) PKC Binding Assay Protocol […]
(§3) competition with 3H-phorbol-12,13-dibutyrate (3H-PDBu) as described below. This procedure entails a glass-fiber filtration method to determine bound radioligand.
(§4) Preparation of PKC binding assay buffer
(§5) To a 50 mL polypropylene tube was added Tris-HCl (pH 7.4, 1 M, 1 mL), KCl (1 M, 2 mL), CaCl2 (0.1 M, 30 μL), and bovine serum albumin (BSA, 40 mg, Sigma-Aldrich). This mixture was diluted to 20 mL with deionized H2O and mixed gently. The buffer was stored on ice until use. The final […]
(§6) Supplementary Table1. PKC binding assay buffer composition.
(§7) Preparation of phosphatidylserine (PS) vesicles
(§8) For every two assays, 3.5 mg phosphatidylserine (Avanti Polar Lipids, porcine, 25 mg/mL CHCl3 solution) was concentrated by removing chloroform under a stream of nitrogen followed by reduced pressure. The solid PS was suspended as vesicles in freshly prepared PKC binding assay buffer (3.5 mL) by sonicating six times for 30 sec, with a 30 sec rest between sonications (Branson Sonifier 250, power = 2, 50% duty cycle). The resulting milky cloudy mixture (1 mg/mL) was stored […]
(§9) Preparation of PKC isoform solution
(§10) Assay PKC was prepared by dissolving a 4 μg aliquot of the indicated recombinant human PKC isoform (Invitrogen) into 11.6 mL of PKC binding assay buffer (this amount is sufficient for two assays). The diluted PKC was stored on ice for immediate use.
(§11) Preparation of 3H-PDBu solution
(§12) 3H-PDBu (American Radiolabeled Chemicals, Inc.; 1 mCi/mL acetone solution; specific activity: […]) was diluted 10-fold with DMSO. The resulting 500 nM stock solution was further diluted with DMSO to 30 nM.
(§13) Preparation of analog compound dilutions
(§14) Compound dilutions were prepared by serially diluting from a chosen "high" concentration by factors of 3 or 4. For each analog compound, seven concentrations were used to define the […]
(§15) To a polypropylene tube was added 3.3 mL of 1 mg/mL PS vesicles solution, 11 mL of PKC isoform solution, and 1.1 mL of 30 nM 3H-PDBu solution were added. The resulting solution was vortexed to mix and stored on ice.
(§16) PKC binding assay protocol
(§17) - Glass-fiber filters (Whatman GF/B) were prepared by soaking them in a solution of aqueous polyethyleneimine (10% by vol, 18 mL) in deionized water (600 mL) for ≥1h.
(§18) - 500 mL "rinsing buffer" of 20 mM Tris, pH 7.4 was cooled on ice for the duration of the incubation period and for the remainder of the assay.
Triplicate data points were obtained for each analog concentration. For each data point, 280 μL of "Master Mix" Solution and 20 μL of analog compound at a specified concentration were added to a polypropylene tube. Non-specific 3H-PDBu binding was assessed in triplicate by substitution

[1] = test system: CD22 surface expression in NALM6 cells; assay: CD22 surface expression in NALM6 cells (flow cytometry); assay type: cell-based, human
Description: CD22 Surface Expression Protocol – NALM6 Cells […]
unless otherwise noted below) at 37 ° C in an incubator (5% CO2). Cell cultures were maintained […]
Cell suspension from a confluent T75 flask (Fisher) was transferred to a 15 mL falcon tube and centrifuged at 1100 rpm for 7 minutes. The supernatant was aspirated, and the cell pellet was […]
Cells were counted using a Countess II Automated Cell
199 µL of this stock was added to 24 wells (enough for triplicate measurements for 8 different experimental conditions) in a 96-well plate. Dosing was […]
each experiment. 1 µL of DMSO or the appropriate stock solution of compound in DMSO was added to each well. Cells were incubated for 24 hours, at which point the cell suspensions were transferred to 1.5 mL Eppendorf tubes and diluted with 1.0 mL of PBS (Hyclone, without Ca2+ or Mg2+). Samples were centrifuged at 2000 rpm for 5 min at RT. The supernatant was aspirated, […]
Cells were sub-cultured between 2 […]
surface expression was assayed by flow cytometry.
Cells from one well were counted using a Countess II Automated Cell Counter (Fisher). ~200,000 – 300,000 cells from each well were added to 1.5 mL Eppendorf tubes containing PBS (final volume ~1.2 mL). The cell suspensions were centrifuged at 1500 rpm for 7 minutes at 4 °C. The supernatant was aspirated, and the cell pellet was resuspended in 99 µL of pre-chilled FACS […]
buffer (0.5% w/v BSA in PBS). […]
minutes. Samples were then diluted with an additional 1.0 mL of FACS buffer and centrifuged at 1500 rpm for 7 minutes at 4 °C. The supernatant was aspirated, the cell pellets were resuspended in 200 µL FACS buffer, and the resulting suspensions were transferred to FACS tubes (Fisher, […]
Cells were stained with DAPI and CD22 surface expression was analyzed using the FACScan Analyzer at the Stanford Shared FACS Facility. Data analysis was performed using FlowJo and Microsoft Excel.

PKC = PKC competitive binding assay, isoform not specified; parameters: species or system human
Description: as §1, §2, §3, §4, §5, §6, §7, §8, §9, §10, §11, §12, §13, §14, §15, §16
- Glass-fiber filters (Whatman GF/B) were prepared by soaking them in a solution of […]

[2] = test system: CD22 surface expression in JB cells; assay: CD22 surface expression in JB cells (flow cytometry); details: 1 nM or 10 nM, 48 h, n = 6
Description: (§19) Compound was washed out and cells were sub-cultured for the indicated times. […] CD22 surface expression was then assayed by flow cytometry (n = 3 biological replicates; data presented as mean values ± SE). c JB cells were incubated with 1 nM (blue bars) or 10 nM (orange bars) of compound for 48 h. CD22 surface expression was then assayed by flow cytometry (n = 6 biological replicates; data presented as mean values ± SE). d 2F7 cells were incubated with 1 nM (blue bars) or 10 nM (orange bars) of compound for 48 h. CD22 surface expression was then assayed by flow cytometry (n = 6 biological replicates; data presented as mean values ± SE).
(§20) JB is an Epstein–Barr virus (EBV)-negative AIDS-lymphoma cell line originally grown out of a bone marrow sample derived from an HIV+ individual, which harbors the Burkitt lymphoma translocation[66]. 2F7 is an AIDS-associated non-Hodgkin’s lymphoma cell line of the Burkitt subtype, which is positive for EBV[67].
(§21) AIDS-NHL cell lines were incubated in IF10 medium, consisting of IMDM
(§22) medium (Life technologies) containing 10% fetal bovine serum (FBS, Omega Scientific), 100
(§23) units/mL of penicillin, and 100 μg/ml of streptomycin (Invitrogen). Cells were incubated at 37 °C
(§24) AIDS-NHL cells were cultured in a u-bottomed 96-well
(§25) tissue culture plates with a cell density of 200,000 cells/well in a 200 μL volume of IF10 media
(§26) were exposed to compound for the either 24 or 48 h before staining and flow cytometric analysis
(§27) Cells in each well were washed with phosphate buffered saline (PBS) containing
(§28) 2% FBS, then cells were centrifuged for 9 min at 233 xg and resuspended in 50 μL of a 1:1 dilution
(§29) of phosphate buffered saline (PBS): Human AB serum (Sigma).
(§30) cells were washed and fixed in 2% paraformaldehyde. Stained samples were stored at 4 °C.
(§31) cytometry samples were analyzed using a FACSCelesta (BD Biosciences) flow cytometer and data
(§32) were analyzed using FlowJo software (version 10).

[3] = test system: CD22 surface expression in 2F7 cells; assay: CD22 surface expression in 2F7 cells (flow cytometry); details: 1 nM or 10 nM, 48 h, n = 6
Description: as §19, §20, §21, §22, §23, §24, §25, §26, §27, §28, §29, §30, §31, §32

PKCδ = target: T2, PKCδ (Homo sapiens, UniProt Q05655); assay: PKC competitive binding assay with [3H]-phorbol dibutyrate (PKCδ); details: cell-free, competition with [3H]-PDBu, PS vesicles
T2 construct: purchased Invitrogen
Description: as §1, §2, §3, §4, §5, §6, §7, §8, §9
Assay PKC was prepared by dissolving a 4 μg aliquot of the indicated recombinant human PKC isoform (Invitrogen) into 11.6 mL of PKC binding assay buffer (this amount is sufficient for two assays). The diluted PKC was stored on ice for immediate use. […]
μCi/mmol) was diluted 10-fold with DMSO. The resulting 500 nM stock solution was further diluted with DMSO to 30 nM.
as §13, §14, §15, §16, §17, §18
Triplicate data points were obtained for each analog concentration. For each data point, 280 μL of "Master Mix" Solution and 20 μL of analog compound at a specified concentration were added to a polypropylene tube. Non-specific 3H-PDBu binding was assessed in triplicate by substitution […]
μM). Maximal 3H-PDBu binding was assessed in triplicate by substitution of the analog compound with 20 μL DMSO. The solutions were vortexed to mix, incubated at 37 °C for 10 min, and […]

PKCδ-GFP fusion protein = target: T3, PKCδ-GFP fusion protein (Homo sapiens, UniProt Q05655); assay: PKCδ-GFP translocation assay in living CHO-k1 cells (confocal microscopy); assay type: cell-based, Chinese hamster; details: for minimum effective concentration required to induce translocation of PKC-GFP to the membrane: tested at 200 and 1000 nM
T3 construct: expressed in transfected cells; host or cells: CHO-k1 (Chinese hamster ovary, ATCC)
Description: as §1
Scale bar represents 25 μm. Experiments performed in n = 3 biological replicates. b–d Cytosolic fluorescence normalized to t = 0 (time immediately prior to addition of compound to media) and plotted against time. Error bars excluded for clarity (data presented as the mean of n = 3 biological replicates). Individual curves with error bars included in Supplementary Information.
PKCδ-GFP Translocation Assay Protocol
Chinese hamster ovary factor K1 (CHO-k1, ATCC) cells were cultured in F-12 Kaighn’s media (Hyclone, 10% fetal bovine serum, 1% penicillin/streptomycin added, reffered to as F-12 +/+ below) at 37 ° C in an incubator (5% CO2). Cell cultures were maintained by splitting cells 1:3 when they reached ~75-100% confluence (every 2-3 days) as follows:
(Gibco) was used to remove the cells from the culture flask (T75, Falcon). 1 mL of the cell suspension was then added to 9 mL of fresh F-12 +/+ and the sample was sub-cultured until reaching confluence (~2-3 days).
Cells were counted using a Countess II Automated Cell Counter (Fisher). The cell suspension was diluted to 240,000 cells/mL with fresh F-12 +/+ and 2.5 mL of this diluted stock was added to one well in a 6-well plate. The cells were then cultured for 24 hours.
Cells were transfected with Lipofectamine 2000 reagent (Invitrogen) or DA 13:11 at a 10:1 charge […]
F-12 +/+ was aspirated and cells were washed with F-12 -/-. 2 mL of fresh F-12 -/- was then added to each well, taking care not to disturb adherent cells. For each well of CHO-k1 cells, 12.5 µL Lipofectamine 2000 reagent (Invitrogen) was added to 250 µL Opti-MEM reduced serum media (Invitrogen) in a polypropylene tube and incubated for 20 minutes at RT. Meanwhile, for each well, 4 µg of PKCδ-GFP pDNA and 250 µL Opti-MEM reduced serum media was added to a separate polypropylene tube. 250 µL of the Lipofectamine 2000 suspension was added to the DNA suspension and the solution incubated for 30 minutes at RT. 500 µL of the Lipofectamine/DNA suspension was added to the respective wells of the 6-well plate. The cells were then incubated at 37 ° C (5% CO2) for ~24 hrs.
F-12 +/+ was aspirated and cells were washed with F-12 -/-. 2.4 mL of fresh F-12 -/- was then added to each well, taking care not to disturb adherent cells. A 4 µg aliquot of PKCδ-GFP pDNA was added to PBS (pH 5.5, final volume 100 µL). 5.6 µL of DA 13:11 (2 mM stock in DMSO) was then added to the DNA solution, and the mixture was gently mixed (by flicking) for 20 seconds, at which point it was added directly to the respective wells of the 6-well plate.

T3 sequence (Q05655 whole entry, the tested form may be a part): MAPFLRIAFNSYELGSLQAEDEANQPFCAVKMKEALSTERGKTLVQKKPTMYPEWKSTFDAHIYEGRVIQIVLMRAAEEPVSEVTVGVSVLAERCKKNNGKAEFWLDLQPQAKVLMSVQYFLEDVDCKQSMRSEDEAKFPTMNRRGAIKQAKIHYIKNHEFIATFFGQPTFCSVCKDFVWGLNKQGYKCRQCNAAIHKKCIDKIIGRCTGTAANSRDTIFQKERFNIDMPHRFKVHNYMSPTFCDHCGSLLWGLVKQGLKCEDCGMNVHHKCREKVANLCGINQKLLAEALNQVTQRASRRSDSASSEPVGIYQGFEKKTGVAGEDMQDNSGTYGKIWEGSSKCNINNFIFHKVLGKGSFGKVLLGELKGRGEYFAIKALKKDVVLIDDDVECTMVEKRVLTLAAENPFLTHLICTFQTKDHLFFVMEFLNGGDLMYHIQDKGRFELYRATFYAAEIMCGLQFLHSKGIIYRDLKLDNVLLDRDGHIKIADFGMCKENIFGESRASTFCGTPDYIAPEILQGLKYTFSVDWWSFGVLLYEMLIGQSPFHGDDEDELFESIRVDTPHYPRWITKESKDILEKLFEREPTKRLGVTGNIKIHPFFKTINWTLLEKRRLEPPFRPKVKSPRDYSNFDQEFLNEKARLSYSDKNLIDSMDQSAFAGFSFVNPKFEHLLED
T2 sequence (Q05655 whole entry): as the sequence (Q05655 whole entry, the tested form may be a part) above

## CCC/C=C/C=C/C(=O)O[C@H]1/C(=C/C(=O)OC)C[C@H]2C[C@H]([C@@H](C)O)OC(=O)C[C@H](O)C[C@@H]3C[C@H](OC(C)=O)C(C)(C)[C@](O)(C[C@@H]4C/C(=C/C(=O)OC)C[C@H](/C=C/C(C)(C)[C@]1(O)O2)O4)O3 [Bryostatin 1, reference compound]
PKCα
  Ki: 0.8 nM
[1]; NALM6 cells, 10 nM for 24 h, then washout and sub-culture
  duration of sustained increase in CD22 surface expression following treatment: up to 7 days
[1]; NALM6 cells, 24 h incubation, Fig. 6
  increase in CD22 surface density: > 2 fold
PKC; conventional and novel PKC isoforms
  PKC binding affinity in words: single-digit nanomolar
[2]
  upregulation of CD22 surface expression: ~ 2 fold
[3]
  upregulation of CD22 surface expression: ~ 2 fold

## CCCC=CC=CC(=O)OC1C(=CC(=O)OC)CC2CC(C(C)O)OC(=O)CC(O)CC3CC(OC(C)=O)C(C)(C)C(O)(CC4CC(=CC(=O)OC)CC(C=CC(C)(C)C1(O)O2)O4)O3 (centres unmarked) [SUW201]
PKCα; read-out: Ki PKCα, cell-free, competition with [3H]-PDBu, PS vesicles
  Ki: 0.54 nM
[2]
  upregulation of CD22 surface expression: ~ 2 fold
[3]
  upregulation of CD22 surface expression: ~ 2 fold

## CCCC=CC=CC(=O)OC1C(=CC(=O)OC)CC2CC(C(C)O)OC(=O)CC(O)CC3CC(OC(C)=O)C(C)(C)C(O)(CC4CC(=CC(=O)OCc5ccccc5)CC(C=CC(C)(C)C1(O)O2)O4)O3 (centres unmarked) [SUW219]
PKCα; cell-free, competition with [3H]-PDBu, PS vesicles, read-out: Ki PKCα
  Ki: 37 nM
PKCδ
  Ki: 25 nM
PKCδ-GFP fusion protein; CHO-K1, 1000 nM compound, CHO-k1 cells, n = 3, read-out: % Translocation (maximum translocation of PKCδ-GFP to the plasma membrane)
  Emax at 1 µM: 60%
PKCδ-GFP fusion protein; CHO-k1 cells
  minimum effective concentration required to induce translocation of PKC-GFP to the membrane: 1000 nM
PKC; benzyl enoates, (Z) olefin geometry, comparator not stated
  decrease in affinity to PKC: ~ 2 fold

## C=CCOC(=O)/C=C1/C[C@H]2C[C@]3(O)O[C@H](C[C@@H](O)CC(=O)O[C@@H]([C@@H](C)O)C[C@@H]4C/C(=C\C(=O)OC)[C@H](OC(=O)/C=C/C=C/CCC)[C@@](O)(O4)C(C)(C)/C=C/[C@@H](C1)O2)C[C@H](OC(C)=O)C3(C)C [SUW229]
PKCδ-GFP fusion protein; CHO-K1, 200 nM compound, CHO-k1 cells, n = 3, read-out: % Translocation (maximum translocation of PKCδ-GFP to the plasma membrane)
  Emax at 0.2 µM: 50%
PKCδ-GFP fusion protein; CHO-k1 cells
  minimum effective concentration required to induce translocation of PKC-GFP to the membrane: 200 nM
PKCδ-GFP fusion protein; Fig. 5c, d
  PKC activation dynamics (shape of translocation curve): more sustained linear activation dynamics
[1]; Homo sapiens, NALM-6, 24 h, NALM6 cells at 1 nM relative to DMSO control, 24 h incubation, washout, 24 h sub-culture, n = 3, read-out: Fold increase CD22 expression
  fold induction at 0.001 µM: 2.35
[2]
  upregulation of CD22 surface expression: ~ 2 fold
[3]
  upregulation of CD22 surface expression: ~ 2 fold
